Earlier results, collected in US20060264388A1, “Method for treating liver cancer by intrahepatic administration of nemorubicin” (priority 2003, published 2006).
Structures can show the parent of a compound that is named as a salt.

System: metastatic colorectal cancer
Settings: after failure of 5-FU leucovorin; cited from earlier work

## CCc1c2c(nc3ccc(OC(=O)N4CCC(N5CCCCC5)CC4)cc13)-c1cc3c(c(=O)n1C2)COC(=O)[C@]3(O)CC [Irinotecan hydrochloride trihydrate]
  median survival time: approximately 9 months
  response rate: 15%
